# Data taken from PMC8285372, “Biochemical and functional characterization of mutant KRAS epitopes validates this oncoprotein for immunological targeting” (Nature Communications, 2021).
# No end group written: not given here.
# Tests used:
# [1] = target: T1, HLA-A*02:01 (Homo sapiens, UniProt P04439, D140Y/D185E/D98H/E176V/E277Q/G131W/G231S/I119V/I121R/I166T/I218V/L300P/L318F/N151K/N90K/P208A/P217A/Q86G/Q94H/R138H/R169H/T345S); type: binding
# [2] = target: T2, HLA-A*03:01 (Homo sapiens, UniProt P04439); test: p-HLA complex stability, scintillation proximity assay of β2-microglobulin dissociation; type: binding
# [3] = target: T3, HLA-A*11:01 (Homo sapiens, UniProt P04439, A114D/D185E/E176A/F33Y/L180Q/S129P/T187R); test: fluorescence polarization competitive peptide-binding assay
# [4] = target: T2, HLA-A*03:01; test: as above
# [5] = target: T4, HLA-B*07:02 (Homo sapiens, UniProt P01889); test: as above; details: Experimental Affinity IC50
# [6] = target: T4, HLA-B*07:02; type: binding
# [7] = target: T3, HLA-A*11:01; test: p-HLA complex stability, scintillation proximity assay of β2-microglobulin dissociation; type: binding
# [8] = target: T1, HLA-A*02:01; test: fluorescence polarization competitive peptide-binding assay
sequence,measurement,setting,value
"RLARAIIEL [HLA-A*02:01 control, Genome polyprotein, West Nile virus, IEDB 54476]",Experimental Stability (t1/2) Mean,[1],3 h
same,"Half_life, Setp #1",[1],3.3 h
same,"Half_life, Setp #2",[1],2.8 h
same,"k, Setp #1",[1],0.2104
same,"k, Setp #2",[1],0.2479
RVKLSALTLK,Experimental Stability (t1/2) Mean,[2],12.3 h
same,"Half_life, Setp #1",[2],11.6 h
same,"Half_life, Setp #2",[2],13.1 h
same,"k, Setp #1",[2],0.0597
same,"k, Setp #2",[2],0.053
ALLAVGATK [gp17-25],IC50,[3],225 nM
same,IC50,[4]; Experimental Affinity IC50,962 nM
FLIDLAFLI,Experimental Stability (t1/2) Mean,[1],10.1 h
same,"Half_life, Setp #1",[1],11 h
same,"Half_life, Setp #2",[1],9.2 h
same,"k, Setp #1",[1],0.063
same,"k, Setp #2",[1],0.0751
ALNTITNLK,Experimental Stability (t1/2) Mean,[2],10.6 h
same,"Half_life, Setp #1",[2],11.4 h
same,"Half_life, Setp #2",[2],9.7 h
same,"k, Setp #1",[2],0.061
same,"k, Setp #2",[2],0.0711
GRAFVTIGK,IC50,[5],371 nM
VVVGARGVGK [Peptide 7-16R],IC50,[3],566 nM
same,IC50,[4]; Experimental Affinity IC50,3240 nM
same,IC50,[4]; Experimental Affinity log10[IC50],≤ 3.59 nM
RPIDDRFGLAL,Experimental Stability (t1/2) Mean,[6],1.1 h
same,"Half_life, Setp #1",[6],1.2 h
same,"Half_life, Setp #2",[6],1.1 h
same,"k, Setp #1",[6],0.5749
same,"k, Setp #2",[6],0.6051
"TVNPIVTEK [HLA-A*11:01 control, Genome polyprotein, Dengue virus, IEDB 67094]",Experimental Stability (t1/2) Mean,[7],11.4 h
same,"Half_life, Setp #1",[7],11.8 h
same,"Half_life, Setp #2",[7],11 h
same,"k, Setp #1",[7],0.0587
same,"k, Setp #2",[7],0.0631
KLVVVGAGGV [Peptide 5-14],IC50,[8],10900 nM
VLWDIPTPK,Experimental Stability (t1/2) Mean,[2],4.7 h
same,"Half_life, Setp #1",[2],4.5 h
same,"Half_life, Setp #2",[2],4.9 h
same,"k, Setp #1",[2],0.1534
same,"k, Setp #2",[2],0.1427
same,Experimental Stability (t1/2) Mean,[7],8 h
same,"Half_life, Setp #1",[7],8.4 h
same,"Half_life, Setp #2",[7],7.5 h
same,"k, Setp #1",[7],0.0825
same,"k, Setp #2",[7],0.093
SPRERLVLTL,Experimental Stability (t1/2) Mean,[6],1 h
same,"Half_life, Setp #1",[6],1.1 h
same,"Half_life, Setp #2",[6],0.9 h
same,"k, Setp #1",[6],0.6505
same,"k, Setp #2",[6],0.7477
ASLPTTIAK,Experimental Stability (t1/2) Mean,[7],22.5 h
same,"Half_life, Setp #1",[7],23.8 h
same,"Half_life, Setp #2",[7],21.1 h
same,"k, Setp #1",[7],0.0291
same,"k, Setp #2",[7],0.0328
GAGGVGKSAL [Peptide 10-19],IC50,[5],76900 nM
KLVVVGARGV [Peptide 5-14R],IC50,[8],20700 nM
RPIDDRFGL,Experimental Stability (t1/2) Mean,[6],3.2 h
same,"Half_life, Setp #1",[6],4 h
same,"Half_life, Setp #2",[6],2.5 h
same,"k, Setp #1",[6],0.174
same,"k, Setp #2",[6],0.2746
"KITDFGIAK [HLA-A*11:01 control, Serine/threonine-protein kinase PknA, Mycobacterium tuberculosis, IEDB 109407]",Experimental Stability (t1/2) Mean,[7],15.6 h
same,"Half_life, Setp #1",[7],16.7 h
same,"Half_life, Setp #2",[7],14.6 h
same,"k, Setp #1",[7],0.0415
same,"k, Setp #2",[7],0.0476
VVGARGVGK [Peptide 8-16R],IC50,[3],634 nM
same,IC50,[4]; Experimental Affinity IC50,5300 nM
KLAQRRVFH,Experimental Stability (t1/2) Mean,[2],3.5 h
same,"Half_life, Setp #1",[2],3.5 h
same,"Half_life, Setp #2",[2],3.6 h
same,"k, Setp #1",[2],0.2008
same,"k, Setp #2",[2],0.1902
